In paper PMC7664879, “Discovery of 12O—A Novel Oral Multi-Kinase Inhibitor for the Treatment of Solid Tumor” (Molecules, 2020):

Columns and labels:
SKOV3 = experiment: CCK-8 cell growth inhibition, SKOV3; type: cell-based, human; conditions: CCK-8 assay, 72-h incubation; read-out: Cell Lines IC50 SKOV3
Procedure: (§1) In vitro anticancer screening of all newly synthesized compounds towards human solid tumor cells, cervical (SiHa) and ovarian (SKOV3) cancer cell lines, was carried out by standard CCK-8 assay with cisplatin as the positive control, as cisplatin is one of the most used chemotherapy drugs. […] The compound was further evaluated in a dose response study against a panel of solid tumor cells, including cervical cancer cell lines (SiHa and HeLa), ovarian cancer cell lines (SKOV3 and OVCAR-5), breast cancer cell lines (4T1 and MCF-7), lung cancer cell lines (A549 and H460) to test cytotoxic activity. The IC50 values were summarized in Table 2, including the cytotoxic activity of the cisplatin used as reference compound.
(§2) The viability of cells as determined using the CCK8 assay method. Cells were seeded (2000–3000 cells per well) in 96-well plates. After incubation for 24 h in serum-containing media, the cells were treated with drugs at different concentrations diluted with culture medium for 72 h at 37 °C with a 5% CO2 atmosphere. Then, 10 μL CCK8 regent (Promega, WI) was added to each well, and the plates were incubated for 1–4 h at 37 °C. Finally, absorbance values of test wells (AS), control wells (AC) and blank wells (Ab) at 450 nm were read using the Microplate Reader (Promega, WI). Inhibition ratios were calculated as follows: [(AC − AS)/ (AC−Ab)] × 100%. IC50 values were calculated using GraphPad software.

SiHa = experiment: CCK-8 cell growth inhibition, SiHa; type: cell-based, human; conditions: CCK-8 assay, 72-h incubation; read-out: Cell Lines IC50 SiHa
Procedure: as §1, §2

HeLa = experiment: CCK-8 cell growth inhibition, HeLa; type: cell-based, human; conditions: cervical cancer; CCK-8 assay, 72-h incubation
Procedure: as §1
as §2, with “Then, 10 μL CCK8 regent (Promega, WI) was added to each well, and the plates were incubated for 1–4 h at 37 °C.” left out

MCF-7 = experiment: CCK-8 cell growth inhibition, MCF-7; type: cell-based, human; conditions: breast cancer; CCK-8 assay, 72-h incubation
Procedure: as §1
as §2, with “Then, 10 μL CCK8 regent (Promega, WI) was added to each well, and the plates were incubated for 1–4 h at 37 °C.” left out

4T1 = experiment: CCK-8 cell growth inhibition, 4T1; type: cell-based; conditions: breast cancer; CCK-8 assay, 72-h incubation
Procedure: as §1
as §2, with “Then, 10 μL CCK8 regent (Promega, WI) was added to each well, and the plates were incubated for 1–4 h at 37 °C.” left out

OVCAR-5 = experiment: CCK-8 cell growth inhibition, OVCAR-5; type: cell-based, human; conditions: ovarian cancer; CCK-8 assay, 72-h incubation
Procedure: as §1
as §2, with “Then, 10 μL CCK8 regent (Promega, WI) was added to each well, and the plates were incubated for 1–4 h at 37 °C.” left out

A549 = experiment: CCK-8 cell growth inhibition, A549; type: cell-based, human; conditions: lung cancer; CCK-8 assay, 72-h incubation
Procedure: as §1
as §2, with “Then, 10 μL CCK8 regent (Promega, WI) was added to each well, and the plates were incubated for 1–4 h at 37 °C.” left out

H460 = experiment: CCK-8 cell growth inhibition, H460; type: cell-based, human; conditions: lung cancer; CCK-8 assay, 72-h incubation
Procedure: as §1
as §2, with “Then, 10 μL CCK8 regent (Promega, WI) was added to each well, and the plates were incubated for 1–4 h at 37 °C.” left out

SiHa xenograft = SiHa xenograft mouse model, oral dosing; type: in vivo; conditions: SiHa xenograft mice, 20 mg/kg oral, every day
Procedure: Based on a desirable set of in vitro properties, 12O was finally selected for further in vivo evaluation. We proceeded to test the antitumor efficacy of 12O in SiHa xenograft mice. Animals were orally given three doses (5, 10, and 20 mg Kg^−1) of 12O, one dose (20 mg Kg^−1) of cisplatin (positive control), or vehicle (control) every day. […] Of note, In Figure 5c, an obvious decrease in tumor size was also observed at the end of observation. The average tumor weight (Figure 5d) of the 12O-treated group was less than that of cisplatin. HE staining was further performed to identify the efficacy of 12O (Figure 5e). […] Additional kinase activities of 12O intimately associated with the growth, survival, and metastasis in tumor cells, may contribute to the antitumor activity, but may also cause side effects. Multi-target kinase inhibitor extensively used in clinic cancer therapy, while hampered by associated adverse reactions and side-effect. Thus, further evidence is needed. An in-depth study of compound 12O is ongoing in our laboratory and will be reported in due course.
All animal studies were conducted under the approval of the Experimental Animal Management Committee of Nankai University (No. NKUEC20190228). Six- to eight-week-old female BALB/c nude mice were purchased from Beijing HFK Bioscience Company. Mice were fed in an SPF-level laboratory animal room. The mice were kept in independent ventilation cages with autoclaved corncobs at the bottom of the cage as bedding. The dimensions of the cages were 390 × 180 × 180 mm. Environmental factors: Average air temperature ranged from 20 to 26 °C with average relative air humidity ranging from 40 to 70%. Noise was below 60 decibels. Ventilation times were more than 15 times/hour. Air velocity was 0.1~0.2m/s. The ammonia concentration was below 14/(mg/m³). Working illumination was 150~300LX and animal illumination was 15~20LX. The nutritional components of mouse food include: water content: ≤10%, crude protein: ≥18%, crude fat: ≥4%, crude fiber: ≥5%, minerals: ≥4%, calcium: 1.0–1.8%, Phosphorus: 0.6-1.2%. The water that mice drink is sterilized by the animal drinking system.
Cells SiHa were harvested during the exponential-growth phase, washed 3 times with serum-free medium, followed by resuspension at a concentration of 2 × 10^6 per mL. A total of 100 μL of cell suspension was injected into SCID mice subcutaneously. After the tumors had grown to 100−150 mm^3, all the mice were randomized into 5 groups (5 mice for each group, 25 mice total). The mice were treated daily via oral gavage administration with 12O (5, 10, or 20 mg kg^−1 d^−1), cisplatin (20 mg kg^−1 d^−1), or vehicle. […] Mice were monitored for side effects every day. Body weights and tumor sizes were determined every other day and volume was also observed. At the end-point of the study, all mice had survived. Mice were euthanized and the subcutaneous tumor tissues were stripped and collected. Tumor measurements were calculated using a digital vernier caliper, and the volumes were determined using the following calculation: (short^2) × long × 0.5. Inhibition rate of tumor growth was calculated using the following formula: 100 × {1 − [(tumor volume final-tumor volume initial) for 12O-treated group]/ [(tumor volume final-tumor volume initial) for the vehicle-treated group]} [23].

Compound	IC50 (SKOV3)	IC50 (SiHa)	further results
N.N.[Cl][Pt][Cl] [Cisplatin, cisplatin, reference compound]	5360 nM	4910 nM	IC50 (HeLa): 5810 nM; IC50 (MCF-7): 7160 nM; IC50 (4T1): 4260 nM; IC50 (OVCAR-5): 1240 nM; IC50 (A549): 8280 nM; IC50 (H460): > 10000 nM; Tumor growth inhibition (TGI) (SiHa xenograft): 31.14%
N-(3-bromophenyl)-N-(4-((5-fluoro-4-(1-isopropyl-1H-benzo[d](1,2,3)triazol-6-yl)pyrimidin-2-yl)amino)benzyl)cyclopropane-1,1-dicarboxamide [12E]	778 nM	66 nM	
N-(4-((5-fluoro-4-(1-isopropyl-1H-benzo[d](1,2,3)triazol-6-yl)pyrimidin-2-yl)amino)benzyl)-N-(3-(trifluoromethyl)phenyl)cyclopropane-1,1-dicarboxamide [12M]	498 nM	177 nM	
N-(4-((5-fluoro-4-(1-isopropyl-1H-benzo[d](1,2,3)triazol-6-yl)pyrimidin-2-yl)amino)benzyl)-N-(3-fluorophenyl)cyclopropane-1,1-dicarboxamide [12A]	531 nM	35 nM	
N-(4-bromophenyl)-N-(4-((5-fluoro-4-(1-isopropyl-1H-benzo[d](1,2,3)triazol-6-yl)pyrimidin-2-yl)amino)benzyl)cyclopropane-1,1-dicarboxamide [12F]	706 nM	128 nM	
N-(4-chloro-3-(trifluoromethyl)phenyl)-N-(4-((5-fluoro-4-(1-isopropyl-1H-benzo[d](1,2,3)triazol-6-yl)pyrimidin-2-yl)amino)benzyl)cyclopropane-1,1-dicarboxamide [12P]	915 nM	231 nM	
N-(4-chlorophenyl)-N-(4-((5-fluoro-4-(1-isopropyl-1H-benzo[d](1,2,3)triazol-6-yl)pyrimidin-2-yl)amino)benzyl)cyclopropane-1,1-dicarboxamide [12D]	793 nM	63 nM	

Stronger by IC50 (SKOV3), values ahead:

IC50 (SKOV3)	Compound	IC50 (SiHa)	further results
459 nM	N-(3-chlorophenyl)-N-(4-((5-fluoro-4-(1-isopropyl-1H-benzo[d](1,2,3)triazol-6-yl)pyrimidin-2-yl)amino)benzyl)cyclopropane-1,1-dicarboxamide [12C]	68 nM	
108 nM	N-(3-cyanophenyl)-N-(4-((5-fluoro-4-(1-isopropyl-1H-benzo[d](1,2,3)triazol-6-yl)pyrimidin-2-yl)amino)benzyl)cyclopropane-1,1-dicarboxamide [12K]	83 nM	
325 nM	N-(4-((5-fluoro-4-(1-isopropyl-1H-benzo[d](1,2,3)triazol-6-yl)pyrimidin-2-yl)amino)benzyl)-N-(3-methoxyphenyl)cyclopropane-1,1-dicarboxamide [12G]	73 nM	
427 nM	N-(4-((5-fluoro-4-(1-isopropyl-1H-benzo[d](1,2,3)triazol-6-yl)pyrimidin-2-yl)amino)benzyl)-N-(4-(trifluoromethyl)phenyl)cyclopropane-1,1-dicarboxamide [12N]	160 nM	
199 nM	N-(4-((5-fluoro-4-(1-isopropyl-1H-benzo[d](1,2,3)triazol-6-yl)pyrimidin-2-yl)amino)benzyl)-N-(4-fluorophenyl)cyclopropane-1,1-dicarboxamide [12B]	28 nM	
312 nM	N-(4-((5-fluoro-4-(1-isopropyl-1H-benzo[d](1,2,3)triazol-6-yl)pyrimidin-2-yl)amino)benzyl)-N-(4-methoxyphenyl)cyclopropane-1,1-dicarboxamide [12H]	80 nM	
165 nM	N-(4-((5-fluoro-4-(1-isopropyl-1H-benzo[d](1,2,3)triazol-6-yl)pyrimidin-2-yl)amino)benzyl)-N-(m-tolyl)cyclopropane-1,1-dicarboxamide [12I]	42 nM	
137 nM	N-(4-((5-fluoro-4-(1-isopropyl-1H-benzo[d](1,2,3)triazol-6-yl)pyrimidin-2-yl)amino)benzyl)-N-(p-tolyl)cyclopropane-1,1-dicarboxamide [12J]	74 nM	
101 nM	N-(4-cyanophenyl)-N-(4-((5-fluoro-4-(1-isopropyl-1H-benzo[d](1,2,3)triazol-6-yl)pyrimidin-2-yl)amino)benzyl)cyclopropane-1,1-dicarboxamide [12L]	63 nM	
